Key:
[1] = target: MMP 13 (Homo sapiens, UniProt P45452); assay: MMP 13 inhibition (HTS); format: biochemical
[2] = target: T1, TACE (Homo sapiens, UniProt P78536); assay: Procedure for Measuring TACE Inhibition (fluorescent peptidyl substrate); format: biochemical; conditions: for IC50: read-out: TACE IC 50
T1 construct: purchased Immunex
Protocol: Using 96-well black microtiter plates, each well recieves a solution composed of 10 μL TACE (Immunex, final concentration 1 μg/mL), 70 μL Tris buffer, pH 7.4 containing 10% glycerol (final concentration 10 mM), and 10 μL of test compound solution in DMSO (final concentration, DMSO concentration <1%) and incubated for 10 minutes at room temperature. The reaction is initiated by addition of a fluorescent peptidyl substrate (final concentration 100 μM) to each well and then shaking on a shaker for 5 sec. The reaction is read (excitation 340 nm, emission 420 nm) for 10 min. and the increase in fluorescence over time is plotted as a linear line. The slope of the line is calculated and represents the reaction rate. […] The mean (x±sem) of the control rate is calculated and compared for statistical significance (p<0.05) with drug-treated rates using Dunnett's multiple comparison test.

T1 sequence (P78536 215-824): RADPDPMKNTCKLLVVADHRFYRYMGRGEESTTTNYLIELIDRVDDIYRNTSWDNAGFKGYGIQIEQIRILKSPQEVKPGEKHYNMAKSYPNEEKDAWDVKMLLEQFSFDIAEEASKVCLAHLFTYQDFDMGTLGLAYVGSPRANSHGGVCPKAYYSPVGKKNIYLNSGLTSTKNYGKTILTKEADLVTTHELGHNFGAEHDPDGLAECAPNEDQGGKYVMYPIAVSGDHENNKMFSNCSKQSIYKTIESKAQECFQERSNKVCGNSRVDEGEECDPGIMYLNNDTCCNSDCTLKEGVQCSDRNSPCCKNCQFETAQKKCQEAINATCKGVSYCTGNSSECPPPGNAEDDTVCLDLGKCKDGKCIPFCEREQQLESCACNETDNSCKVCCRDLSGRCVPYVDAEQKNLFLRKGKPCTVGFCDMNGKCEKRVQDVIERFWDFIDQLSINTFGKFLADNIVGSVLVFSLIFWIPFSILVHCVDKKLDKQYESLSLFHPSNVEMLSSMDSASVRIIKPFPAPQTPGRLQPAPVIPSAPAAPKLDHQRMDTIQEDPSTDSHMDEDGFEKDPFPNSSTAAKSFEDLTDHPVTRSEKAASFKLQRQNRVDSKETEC

| Molecule | MMP 13 % inhibition at 0.2 μM (HTS) [1] [%] | TACE % inhibition at 1 mM [2] [%] | further results |
| --- | --- | --- | --- |
| CCCCCCCCC(Sc1cccc(OC)c1)C(=O)NO (stereo not shown) [Example 140, 2-(3-methoxy-benzenesulfanyl)decanoic acid hydroxamide] | 29 |  |  |
| COc1ccc(S(=O)(=O)C2(C(=O)NO)CCN(C3CCCCCCC3)CC2)cc1 [Example 94, 1-Cyclooctyl-4-(4-methoxy-benzenesulfonyl)-piperidine-4-carboxylic acid hydroxyamide] |  |  | melting point: > 200 °C; IC50 [2]: 22.9 nM |
| COc1ccc(S(=O)(=O)C2(C(=O)NO)CCN(Cc3ccc(Br)cc3)CC2)cc1 [Example 90, 1-(4Bromo-benzyl)-4-(4-methoxy-benzenesulfonyl)-piperidine-4-carboxylic acid hydroxyamide] |  |  | melting point: 180 °C; IC50 [2]: 71.9 nM |
| CC(C)CCSC(C)C(=O)NO (stereo not shown) [Example 112, N-Hydroxy-2-(3-methyl-butane-1-sulfanyl)-propionamide] | 50 | 33.7 |  |
| N=C(N)NCCCC(C(=O)NO)S(=O)(=O)c1ccccc1Br (stereo not shown) [Example 159, 2-(2-Bromosulfonyl)-5-guanidino-pentanoic acid hydroxyamide] | 49 |  |  |
| COc1ccc(S(=O)(=O)C2(C(=O)NO)CCN(C(C)(C)C)CC2)cc1 [Example 92, 1-Tert-butyl-4-(4-methoxy-benzenesulfonyl)-piperidine-4-carboxylic acid hydroxyamide] |  |  | melting point: 40 °C; IC50 [2]: 9.7 nM |
| N=C(N)NCCCC(C(=O)NO)[S+]([O-])c1ccccc1Br (stereo not shown) [Example 158, 2-(2-Bromosulfinyl)-5-guanidino-pentanoic acid hydroxyamide] | 33 |  |  |
| COC(=O)CCC(Sc1ccc(SC)cc1)C(=O)NO (stereo not shown) [Example 131, 4-Hydroxycarbamoyl-4-(4-methanesulfanyl-phenylsulfanyl)-butyric acid methyl ester] | 71 |  |  |
| CCCCCCCCC(C(=O)NO)[S+]([O-])c1cccc(OC)c1 (stereo not shown) [Example 141, 2-(3-Methoxy-benzenesulfinyl)decanoic acid hydroxamide] | 32 |  |  |
| CCCCCCC(Sc1nccn1C)C(=O)NO (stereo not shown) [Example 39, 2-(1-methyl-1H-imidazol-2-ylsulfanyl)-octanoic acid hydroxyamide] |  |  | melting point: 125 °C; IC50 [2]: 69.4 nM |
| CCCCCCC(Sc1nc2ccccc2s1)C(=O)NO (stereo not shown) [Example 170, 2-(2-Benzothiazol-2-ylsulfanyl)-octanoic acid hydroxyamide] |  |  | MMP 13 % inhibition at 36 nM (HTS) [1]: 32% |
| CCCCCCC(Sc1cccc(OC)c1)C(=O)NO (stereo not shown) [Example 162, 2-(3-Methoxybenzenesulfanyl)-octanoic acid hydroxyamide] | 13 |  |  |
| CCCCCCC(Sc1ccc(NS(=O)(=O)c2cc(Cl)sc2Cl)cc1)C(=O)NO (stereo not shown) [Example 233] |  | 19.8 | MMP 13 % inhibition at 36 nM (HTS) [1]: 33% |
| CCCCCCC(Sc1nc2ccccc2[nH]1)C(=O)NO (stereo not shown) [Example 168, 2-(2-Benzimidazol-2-ylsulfanyl)-octanoic acid hydroxyamide] | 21 |  |  |
| CCCCCCC(C(=O)NO)S(=O)(=O)CCc1cccc[n+]1[O-] (stereo not shown) [Example 183, 2-[2-(1-Oxy-pyridin-2-yl)-ethanesulfonyl]-octanoic acid hydroxyamide] |  |  | MMP 13 % inhibition at 36 nM (HTS) [1]: −6% |
| 3-(1-Hydroxycarbamoyl-heptylsulfanyl)-benzoic acid hydroxyamide [Example 184] |  | 24.8 | MMP 13 % inhibition at 36 nM (HTS) [1]: 16% |
| N-Hydroxy-3-methyl-2-phenethylsulfinyl-butyramide [Example 117] | 7 | 8.1 |  |
| O=C(CCC(Sc1ccc(Br)cc1)C(=O)NO)NO (stereo not shown) [Example 134, 4-Hydroxycarbamoyl-4-(4-bromo-benzenesulfanyl)-butyric acid hydroxyamide] | 25 | −9.31 |  |
| CCCCCCC(C(=O)NO)[S+]([O-])c1ccc(NS(=O)(=O)c2ccc(-c3ccccn3)s2)cc1 (stereo not shown) [Example 237, 5-Pyridin-2-yl-thiophene-2-sulfonic acid 4(1-hydroxycarbamoyl-heptylsulfinyl)-hydroxy amide] |  | 38.2 | MMP 13 % inhibition at 36 nM (HTS) [1]: 55% |
| CCC(SCC(=O)OC)C(=O)NO (stereo not shown) [Example 119, (1-Hydroxycarbamoyl-propane-1-sulfanyl)-acetic acid methyl ester] | 0 | 7.8 |  |
| CCCCCCCCC(C(=O)NO)S(=O)(=O)c1ccc(S(C)(=O)=O)cc1 (stereo not shown) [Example 145, 2-(4-methanesulfonyl-benzenesulfonyl)decanoic acid hydroxamide] | 45 |  |  |

| Molecule | MMP 13 % inhibition at 0.2 μM (HTS) [1] [%] | TACE % inhibition at 1 mM [2] [%] | further results |
| --- | --- | --- | --- |
| CCCCCCCCC(C(=O)NO)[S+]([O-])c1ccc([S+](C)[O-])cc1 (stereo not shown) [Example 144, 2-(4-methanesulfinyl-benzenesulfinyl)decanoic acid hydroxamide] | 38 |  |  |
| COc1ccc(SC(C)C(=O)NO)cc1 (stereo not shown) [Example 111, N-Hydroxy-2-(4-methoxy-benzenesulfanyl)-propionamide] | 10 | 40.4 |  |
| CCCCCCC(C(=O)NO)S(=O)(=O)c1ccc(NS(=O)(=O)c2cccc3nsnc23)cc1 (stereo not shown) [Example 240, Benzo[1,2,5]thiadiazole-4-sulfonic acid 4-(1-hydrxycarbamoyl-heptylsulfonyl)-hydroxyamide] |  | 40.3 | MMP 13 % inhibition at 36 nM (HTS) [1]: 48% |
| (1-Hydroxycarbamoyl-propane-1-sulfinyl)-acetic acid hydroxy amide [Example 121] |  | 6.1 |  |
| CC(C)=CCC(CC=C(C)C)(C(=O)NO)S(=O)(=O)c1ccc(C)cc1 [Example 42, 5-Methyl-2-(3-methyl-but-2-enyl)-2-(toluene-4-sulfonyl)-hex-4-enoic acid hydroxyamide] |  |  | melting point: 108 to 110 °C; IC50 [2]: 36.5 nM |
| CCCCCCC(Sc1ccc(OC)c(OC)c1)C(=O)NO (stereo not shown) [Example 165, 2-(3,4-Dimethoxybenzenesulfanyl)-octanoic acid hydroxyamide] | 71 |  |  |
| 3-Bromo-2-chloro-thiophene-2-sulfonic acid 4-(1-hydroxycarbamoyl-heptylsulfonyl)-hydroxyamide [Example 239] |  | 45.9 | MMP 13 % inhibition at 36 nM (HTS) [1]: 54% |
| CCCCCCC(C(=O)NO)S(=O)(=O)c1[nH]c2ccccc2[n+]1[O-] (stereo not shown) [Example 181, 2-(3-Oxy-1H-benzimidazole-2-sulfonyl)-octanoic acid hydroxyamide] |  |  | MMP 13 % inhibition at 36 nM (HTS) [1]: 6% |
| CCCCCCC(C(=O)NO)[S+]([O-])c1ccc(NS(=O)(=O)c2cc(Cl)sc2Cl)cc1 (stereo not shown) [Example 236, 2,5-Dichloro-thiophene-3-sulfonic acid 4-(1-hydroxycarbamoyl-heptylsulfinyl)-hydroxyamide] |  | 35 |  |
| CCCCCCC(Sc1cc(Cl)ccc1Cl)C(=O)NO (stereo not shown) [Example 160, 2-(2,5-dichlorobenzenesulfanyl)-octanoic Acid Hydroxyamide] | 14 |  |  |
| (1-Hydroxycarbamoyl-propane-1-sulfanyl)-propionic acid hydroxyamide [Example 122] |  | 3.1 |  |
| O=C(NO)C(Cc1cnc[nH]1)Sc1ccccc1Br (stereo not shown) [Example 152, 2-(2-bromo-benzenesulfanyl)-N-hydroxy-3-(3H-imidazol-4-yl)-propionamide] | 9 |  |  |
| CSc1ccc(SC(COCc2ccccc2)C(=O)NO)cc1 (stereo not shown) [Example 146, 3-benzyloxy-N-hydroxy-2-(4-methanesulfanyl-benzenesulfanyl)-propionamide] | 68 |  |  |
| CCCCCCC(Sc1ccc(OCc2ccccc2)cc1)C(=O)NO (stereo not shown) [Example 199, 2-(^4-Benzyloxy-phenylsulfanyl)-octanoic acid hydroxyamide] |  |  | MMP 13 % inhibition at 36 nM (HTS) [1]: −10% |
| CCCCCCCCC(C(=O)NO)S(=O)(=O)c1cccc(OC)c1 (stereo not shown) [Example 142, 2-(3-Methoxy-benzenesulfonyl)decanoic acid hydroxamide] | 69 |  |  |
| N=C(N)NCCCC(Sc1ccccc1Br)C(=O)NO (stereo not shown) [Example 157, 2-(2-Bromosulfanyl)-5-guanidino-pentanoic acid hydroxyamide] | 19 |  |  |
| CCCCCCC(C(=O)NO)[S+]([O-])c1nc2ccccc2[nH]1 (stereo not shown) [Example 177, 2-(2-Benzimidazol-2-ylsulfinyl)-octanoic acid hydroxyamide] |  |  | MMP 13 % inhibition at 36 nM (HTS) [1]: 5% |
| COc1ccc(S(=O)(=O)C(C/C=C(\C)CCC=C(C)C)(Cc2ccc(OCCN3CCOCC3)cc2)C(=O)NO)cc1 (stereo not shown) [Example 26, (4E)-2-(4-Methoxy-benzenesulfonyl)-5,9 dimethyl-2-(4-(2-morpholin-4-yl-ethoxy)-benzyl]-deca-4,8-dienoic acid hydroxyamide] |  |  | IC50 [2]: 34.6 nM |
| COc1ccc(S(=O)(=O)C2(C(=O)NO)CCN(C(C)C)CC2)cc1 [Example 96, 1-Isopropyl-4-(4-methoxy-benzenesulfonyl)-piperidine-4-carboxylic acid hydroxyamide] |  |  | melting point: 75 °C; IC50 [2]: 18.1 nM |
| (1-Hydroxycarbamoyl-propane-1-sulfonyl)-acetic acid hydroxyamide [Example 120] |  | 19.9 |  |
| CCCCCCC(Sc1nc2ccccc2o1)C(=O)NO (stereo not shown) [Example 169, 2-(2-Benzooxazol-2-ylsulfanyl)-octanoic acid hydroxyamide] |  |  | MMP 13 % inhibition at 36 nM (HTS) [1]: 28% |
